# Publication PMC6337391 (Molecules, 2019)
# Experiments:
# human h-15-LOX-1 = biological target: T1, human h-15-LOX-1 (Homo sapiens, UniProt P16050); test: Human h-15-LOX-1 screening UV assay; type: biochemical; settings: for h-15-LOX-1 inhibitory potency ranking at 50 µM (in words): 10 min pre-incubation
# T1 sequence (P16050 1-662): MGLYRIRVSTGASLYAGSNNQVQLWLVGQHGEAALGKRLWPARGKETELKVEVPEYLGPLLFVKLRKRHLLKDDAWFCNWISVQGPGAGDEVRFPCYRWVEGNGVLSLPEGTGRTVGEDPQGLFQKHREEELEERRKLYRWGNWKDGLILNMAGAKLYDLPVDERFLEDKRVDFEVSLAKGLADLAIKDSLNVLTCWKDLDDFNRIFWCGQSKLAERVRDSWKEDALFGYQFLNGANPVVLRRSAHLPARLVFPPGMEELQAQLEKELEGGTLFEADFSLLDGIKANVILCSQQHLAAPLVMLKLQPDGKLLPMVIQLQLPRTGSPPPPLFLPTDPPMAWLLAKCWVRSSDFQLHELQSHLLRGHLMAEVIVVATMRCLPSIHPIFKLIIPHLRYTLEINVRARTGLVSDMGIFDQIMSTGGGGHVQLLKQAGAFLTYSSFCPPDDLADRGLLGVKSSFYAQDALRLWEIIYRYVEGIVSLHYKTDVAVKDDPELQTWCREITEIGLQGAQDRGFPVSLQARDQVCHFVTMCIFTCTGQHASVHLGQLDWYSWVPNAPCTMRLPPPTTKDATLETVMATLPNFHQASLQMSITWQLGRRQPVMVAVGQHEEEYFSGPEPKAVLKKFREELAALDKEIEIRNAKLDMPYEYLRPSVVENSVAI
# Description: The residual enzyme activity was measured after 10 min pre-incubation with the tested compounds at room temperature. […] Compound c11 follows.
# The assay buffer consists of HEPES titrated to pH 7.5 using a concentrated aqueous solution of NaOH. Linoleic acid (LA) was used as a substrate. The linear absorbance increase in absence of the inhibitor was set as 100%, whereas the absorbance increase in absence of the enzyme was set to 0%. All experiments were performed in triplicate and the average triplicate values and their standard deviations are plotted. The vertical axis describes the residual enzyme activity percent % of the human h-15-LOX-1, whereas the horizontal axis describes the concentration of 50 µM of the compounds. The half maximal inhibitor concentration (IC50) of the inhibitors for h-15-LOX-1 was determined using the same assay (Figure 6 and Figure 7).
# [1] = Reducing activity with the stable radical DPPH
# Outline: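 DPPH (final 0.05 mM) in absolute ethanol mixed with an equal volume of compound at 0.05 or 0.1 mM, ethanol as control. Absorbance at 517 nm read at room temperature after 20 and 60 min, expressed as reducing activity RA%.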
Compound,h-15-LOX-1 inhibitory potency ranking at 50 µM (in words) (human h-15-LOX-1),IC50 (human h-15-LOX-1; read-out: h-15-LOX-1 Inhb. IC50) [µM],RA% 100 μM 20 min [1],RA% 100 μM 60 min [1]
"O=C(/C=C/c1cccc2ccccc12)c1ccccc1O [b4, (E)-1-(2-hydroxyphenyl)-3-(naphthalen-1-yl) prop-2-en-1-one]",highest activity within the group,9.5,30%,20%
"O=C(/C=C/C=C/c1ccc([N+](=O)[O-])cc1)c1ccc(OCCCOc2ccc(C(=O)/C=C/C=C/c3ccc([N+](=O)[O-])cc3)cc2)cc1 [c11, (2E,2′E,4E,4′E)-1,1′-((propane-1,3-diylbis(oxy))bis(4,1-phenylene))bis(5-(4-nitrophenyl)penta-2,4-dien-1-one)]",(2nd potent at 50 μM),–,No,no
